Measurements reported in patent US20250051391A1, “PEPTIDE INHIBITORS AND METHODS FOR INHIBITING PROTEIN AGGREGATION IN NEURONS AND NEURODEGENERATIVE DISEASES” (THE GOVERNING COUNCIL OF THE UNIVERSITY OF TORONTO, priority 2021, published 2025).
Entries after “also recorded” stand apart in the source; their conditions may differ.

How the values were obtained:
[1] = tested on: HEK293 cells overexpressing WT or A53T a-syn; test: Cell Titer-Glo cell viability assay in a-syn expressing cells; assay type: cell-based, human; conditions: HEK293 cells overexpressing WT or A53T a-syn, with or without MG132; expressed GFP-peptide or protein
Description: Oligonucleotides encoding the specific peptides were synthesized and individually cloned into the pLJM1 nGFP lentiviral vector. Cells were infected with individual constructs, and cell viability was assessed using Cell Titer-Glo Luminescent assay (Promega) at 72 h post infection.
Cells were trypsinized from subconfluent cultures as described earlier, suspended in culture media, and then seeded into triplicate wells of a 96-well plate (100 μl well/1) at a density of 1.5×10^4 cells per well at standard culture conditions of 5% CO2 in air at 37° C. Cells were infected with lentivirus expressing peptide at an MOI of 5 for 72 h or transfected with plasmid for 72 h. Cell Titer-Glo reagent was added to each well (30 μL), according to the manufacturer's protocol and […].

A53T a-syn = test: a-syn protein levels by immunoblot in HEK293 cells; assay type: cell-based, human; conditions: HEK293 cells expressing A53T a-syn
Description: Infected or transfected cells were scraped from 6-well dishes and lysed with lysis buffer (50 mM Tris-HCl pH7.4, 1% Nonidet P-40, 150 mM NaCl, 1 mM EDTA, 1× protease inhibitor mixture (Sigma)) for 30 min at 4° C. The insoluble pellet was removed following a 10,000 rpm spin for 5 minutes at 4° C. Lysates were analyzed by SDS-PAGE/immunoblot using 4-20% Mini-PROTEAN Tris-glycine gels (Bio-Rad) transferred to PVDF membranes and blocked in 5% milk containing PBS-Tween-20 (0.1%) for 1 h. PVDF membranes were then incubated with specified primary antibodies followed by incubation with horseradish peroxidase-conjugated secondary antibodies (Santa Cruz Biotechnology) and detected using enhanced chemiluminescence (GE Healthcare).

VPS4 = conditions: motif-domain interaction, reference (20); read-out: affinity of CHMP2B-VPS4 interaction; cited from earlier work

Substance: full-length CHMP2B: Charged Multivesicular Body Protein 2B, member of ESCRT-III, uniprot ID Q9UQN3
- cell viability / cytoprotective effect [1]: rescues a-syn cytotoxicity
- a-syn protein levels by immunoblot (A53T a-syn): reduced a-syn protein levels; also recorded: reduces a-syn levels
- Kd (VPS4): 178 µM
